Measured values published in patent US20110262566A1, “NOVEL USEFUL THERAPEUTIC AGENT FOR LOWER URINARY TRACT SYMPTOM” (DAINIPPON SUMITOMO PHARMA CO., LTD., priority 2008, published 2011).

Legend:
[1] = test system: small DRG neurons; assay: Test Example 1: action of the compound A on C-fiber activation (high-K-induced rise in membrane potential, DiBAC4(3) fluorescence); assay type: cell-based, rat; settings: compound A 3 μM pretreated between 1st and 2nd 60 mM K stimulations; control 72±3%
Description: This test was performed using male SD strain rats at 6 to 7 weeks of age after birth. The animals were reared in metal cages, and allowed to take food (CE-2; CLEA Japan) and water ad libitum.
Rat spinal cord was dissected under halothane anesthesia. DRG tissue was removed from the spinal cord under a stereoscopic microscope, and recovered into an ice-cooled culture dish containing DMEM. The DRG tissue was digested using 0.25% trypsin and 0.38% collagenase, and DRG neurons were isolated. The DRG neurons were seeded to a cover glass coated with Poly-L-Lysine and laminin, and cultured.
On the day after the start of cultivation, the DRG neurons were loaded with 5 μM DiBAC4(3) in the presence of 5% gaseous carbon dioxide at 37° C. for 1 hour or more. Thereafter, the neurons were transferred to an assay buffer solution (pH 7.3; 10 mM HEPES, 145 mM NaCl, 5 mM KCl, 2 mM CaCl2, 1 mM MgCl2, mM Glucose), and the fluorescence intensity of each DRG neuron was measured using the image analytical system AQUACOSMOS (Hamamatsu Photonics).
When small DRG neurons were selected and stimulated with 60 mM high-concentration K solution (pH 7.3; 10 mM HEPES, 90 mM NaCl, 60 mM KCl, 2 mM CaCl2, 1 mM MgCl2, 10 mM Glucose), a rise in membrane potential was observed. When the 60 mM high-concentration K solution was replaced with the assay buffer solution, the transiently-elevated membrane potential fell rapidly. […]

[2] = test system: small DRG neurons; assay: Test Example 2: combination effect with α1-adrenergic receptor blocker (high-K-induced rise in membrane potential, DiBAC4(3) fluorescence); assay type: cell-based, rat; settings: control 72±3%
Description: This test was performed using male SD strain rats at 6 to 7 weeks of age after birth. The animals were reared in metal cages, and allowed to take food (CE-2; CLEA Japan) and water ad libitum. Rat spinal cord was dissected under halothane anesthesia. DRG tissue was removed from the spinal cord under a stereoscopic microscope, and recovered into an ice-cooled culture dish containing DMEM. The DRG tissue was digested using 0.25% trypsin and 0.38% collagenase, and DRG neurons were isolated. The DRG neurons were seeded to a cover glass coated with Poly-L-Lysine and laminin, and cultured. On the day after the start of cultivation, the DRG neurons were loaded with 5 μM DiBAC4(3) in the presence of 5% gaseous carbon dioxide at 37° C. for 1 hour or more. Thereafter, the neurons were transferred to an assay buffer solution (pH 7.3; 10 mM HEPES, 145 mM NaCl, 5 mM KCl, 2 mM CaCl2, 1 mM MgCl2, mM Glucose), and the fluorescence intensity of each DRG neuron was measured using the image analytical system AQUACOSMOS (Hamamatsu Photonics). When small DRG neurons were selected and stimulated with 60 mM high-concentration K solution (pH 7.3; 10 mM HEPES, 90 mM NaCl, 60 mM KCl, 2 mM CaCl2, 1 mM MgCl2, 10 mM Glucose), a rise in membrane potential was observed. When the 60 mM high-concentration K solution was replaced with the assay buffer solution, the transiently-elevated membrane potential fell rapidly. […]

Question: For `O=C1Nc2ccccc2[C@H](c2ccccc2)N1C1CCN(Cc2cccc(OC(F)(F)F)c2)CC1` [compound A, (+)-3-{1-[3-(trifluoromethoxy)benzyl]piperidin-4-yl}-4-phenyl-3,4-dihydro-2(1H)-quinazolinone], which “rise in membrane potential (ΔF/F), second rise relative to first rise as 100%” value [1] is on record?
Answer: Its value is 66±6%.

Question: How did the “rise in membrane potential (ΔF/F), second rise relative to first rise as 100%” value ([2]; naftopidil 30 μM alone, treated between 1st and 2nd 60 mM K stimulations) turn out when `COc1ccccc1N1CCN(CC(O)COc2cccc3ccccc23)CC1` (stereo not drawn) [naftopidil] was run?
Answer: Its value is 40±5%.

Question: How did the “change in membrane potential” value ([2]; tamsulosin 0.1 μM alone, pretreatment, 60 mM K stimulation) turn out when `CCOc1ccccc1OCCN[C@H](C)Cc1ccc(OC)c(S(N)(=O)=O)c1` [tamsulosin] was run?
Answer: Its value is “nearly the same extent as with the control”.
